Columns and labels:
Type in all cases: cell-based
[1] = molecular target: T1, p62 protein (Homo sapiens, UniProt Q13501); experiment: Oligomerization activity of p62 protein by immunoblotting; parameters: endogenous in cells; conditions: HEK293 cell line lysate treated with test compounds for 2 hours at room temperature
Source text: In order to evaluate the oligomerization activity efficacy of p62 protein of the compounds (Examples 1-20), HEK293 cell line, which is human embryonic kidney-derived cell, was collected. As representative compounds of the present compounds, the compounds of Examples 1-20 (Example 1 (ATB10048), Example 2 (ATB10047), Example 3 (ATB10049), Example 4 (ATB10051), Example 5 (ATB10050), Example 6 (ATB10056), Example 7 (ATB10052), Example 8 (ATB10057), Example 9 (ATB10060), Example 10 (ATB10072), Example 11 (ATB10075), Example 12 (ATB10078), Example 13 (ATB10079), Example 14 (ATB10080), Example 15 (ATB10081), Example 16 (ATB10087), Example 17 (ATB10096), Example 18 (ATB10097), Example 19 (ATB10099) and Example 20 (ATB10100)) were selected, and in order to measure the activation and oligomerization of the p62 protein in cells according to the treatment with these selected representative compounds, each cell was dispensed into a 100 phi dish. The cells were collected after additional culture for 24 hours so that the cells were completely attached to the surface of the plate, and 100 ul of lysis buffer (20 mM Tris (pH 7.4), 150 mM NaCl, 1% Triton X-100, 2 mM NaF, 2 mM EDTA, 2 mM beta-glycerophosphate, 5 mM sodium orthovanadate, 1 mM PMSF, leupeptin, aproteinin) was injected to each sample, and the cells were lysed. Based on the measured total protein concentration, each sample was treated with the test compounds for 2 hours at room temperature, and then a sample buffer was added and reacted at 95° C. for 10 minutes. 25 ul was taken from the samples after the reaction was completed and dispensed into each well of an acrylamide gel, and immunoblotting was performed.

[2] = molecular target: T1, p62 protein; experiment: Activity of p62 protein and delivery of ubiquitinated substrate proteins to autophagy by immunofluorescence staining (p62, FK2) and confocal microscopy; parameters: endogenous in cells; host or cells: HeLa; conditions: Hela cell line, 1 uM, 6 hours
Procedure: Immunofluorescence staining was performed using p62 and FK2 as markers to determine the level of the activity of p62 protein of the compounds (Examples 1-20). In order to determine the level of p62 activity and autophagy activity by the novel p62 ligand and its isomers in the cultured cells, the Hela cell line derived from cervical cancer patients was treated with a novel p62 ligand compound (Example 1 (ATB10048), Example 2 (ATB10047), Example 3 (ATB10049), Example 5 (ATB10050), Example 4 (ATB10051), Example 7 (ATB10052), Example 6 (ATB10056), Example 8 (ATB10057), Example 9 (ATB10060), Example 10 (ATB10072), Example 11 (ATB10075), Example 12 (ATB10078), […], Example 14 (ATB10080), Example 15 (ATB10081), Example 16 (ATB10087)), Example 17 (ATB0096), Example 18 (ATB10097), Example 19 (ATB10099) and Example 20 (ATB10100)) and cultured, and then the level of puncta expression and location of FK2, which was a marker of the protein to be delivered to and degraded in the autophagy through the mediation of the intracellular ubiquitinated p62, and the puncta local co-existence with p62 were observed.
For immunofluorescence staining, a cover glass was placed on a 24-well plate, cells were dispensed and cultured for 24 hours, and then 1 uM of the novel p62 ligand according to the present invention was treated. After culturing for an additional 6 hours for the action of the compound, the medium was removed, and the cells were fixed using formaldehyde at room temperature. In order to prevent non-specific staining, the cells were reacted with a blocking solution at room temperature for 1 hour, and then the LC3 antibody diluted at a certain ratio was treated with a blocking solution and then reacted at room temperature for 1 hour. After the antibody-treated cells were washed 3 times with PBS, the goat-derived secondary antibody was diluted at a certain ratio using the blocking solution, and then reacted at room temperature for 30 minutes. After further washing with PBS three times, and DAPI staining was performed for intracellular nuclear staining. Then, the level of expression of p62 or FK2, the level of intracellular puncta formation, and the level of coexistence in the cells were observed by a confocal microscope.

[3] = molecular target: T1, p62 protein; experiment: Activity of p62 protein and delivery to autophagosome by immunofluorescence staining (p62, LC3-GFP) and confocal microscopy; parameters: endogenous in cells; host or cells: HeLa; conditions: Hela-LC3-GFP cell line, 5 uM, 24 hours
Procedure: Immunofluorescence staining was performed using p62 and FK2 marker to determine the level of activity of p62 protein of the compounds (Examples 1-20). In order to determine the level of p62 activity and autophagy activity by the novel p62 ligand and its isomers in cultured cells, Hela-LC3-GFP cell line derived from cervical cancer patients was treated with the novel p62 ligand compounds (Example 2 (ATB10047), Example 3 (ATB10049), Example 4 (ATB10051), Example 6 (ATB10056), Example 9 (ATB10060), Example 12 (ATB10078), Example 16 (ATB10087) and Example (ATB10097)) and cultured. Then, the level of puncta expression and location of LC3-GFP, which is an essential autophagosome marker for macroautophagy, and the puncta local co-existence of p62 were observed.
For immunofluorescence staining, a cover glass was placed on a 24-well plate, cells were dispensed and cultured for 24 hours, and then treated with 5 uM of the novel p62 ligand according to the present invention. The cells were further cultured for an additional 24 hours for the action of the compound, the medium was removed, and the cells were fixed using formaldehyde at room temperature. In order to prevent non-specific staining, the cells were reacted with a blocking solution at room temperature for 1 hour, and then the LC3 antibody diluted at a certain ratio was treated with the blocking solution and then reacted at room temperature for 1 hour. After the antibody-treated cells were washed 3 times with PBS, the goat-derived secondary antibody was diluted at a certain ratio using the blocking solution, and then reacted at room temperature for 30 minutes. The cells were washed again with PBS three times and subjected to DAPI staining for intracellular nuclear staining, and then the level of expression of p62 or LC3, intracellular puncta formation, and intracellular coexistence level were observed by a confocal microscope.

T1 sequence (Q13501 whole entry): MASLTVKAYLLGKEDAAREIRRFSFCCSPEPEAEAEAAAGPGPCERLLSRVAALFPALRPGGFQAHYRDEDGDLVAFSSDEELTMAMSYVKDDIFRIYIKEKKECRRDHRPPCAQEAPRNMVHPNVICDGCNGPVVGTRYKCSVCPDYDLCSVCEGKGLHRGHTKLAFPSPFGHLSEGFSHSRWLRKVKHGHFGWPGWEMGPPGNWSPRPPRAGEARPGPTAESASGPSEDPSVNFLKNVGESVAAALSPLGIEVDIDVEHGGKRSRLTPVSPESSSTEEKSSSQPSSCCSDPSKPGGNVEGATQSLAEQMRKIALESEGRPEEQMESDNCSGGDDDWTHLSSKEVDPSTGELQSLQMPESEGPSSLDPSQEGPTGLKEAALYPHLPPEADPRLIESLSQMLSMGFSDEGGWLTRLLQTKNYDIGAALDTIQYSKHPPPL

SMILES	p62 protein oligomerization activity (immunoblot, FIGS. 2a to 2d) [1]	delivery of ubiquitinated proteins marked with FK2 to autophagosome mediated by p62 (FIGS. 3a to 3d) [2]	targeting of activated, oligomerized p62 protein to the autophagosome (FIG. 4) [3]
OCCNC[C@@H](O)COc1cc(OCc2ccccc2)ccn1 [Example 10, (R)-1-((4-(benzyloxy)pyridin-2-yl)oxy)-3-((2-hydroxyethyl)amino)propan-2-ol]	increasing the p62 protein oligomerization activity	show the efficacy of delivering the proteins to be delivered to and degraded by autophagosome	–
OCCNCc1cc(OCc2ccccc2)c(OCc2ccccc2)cn1 [Example 8, 2-(((4,5-bis(benzyloxy)pyridin-2-yl)methyl)amino)ethan-1-ol]	increasing the p62 protein oligomerization activity	show the efficacy of delivering the proteins to be delivered to and degraded by autophagosome	–
O=C(O)CNCc1ccc(OCCc2ccccc2)s1 [Example 20, ((5-phenethoxythiophen-2-yl)methyl)glycine]	increasing the p62 protein oligomerization activity	show the efficacy of delivering the proteins to be delivered to and degraded by autophagosome	–
OCCNCc1cccc(OCc2ccccc2)n1 [Example 2, 2-(((6-(benzyloxy)pyridin-2-yl)methyl)amino)ethan-1-ol]	increasing the p62 protein oligomerization activity	show the efficacy of delivering the proteins to be delivered to and degraded by autophagosome	show the efficacy of targeting them to the autophagosome
COC(=O)CCNC[C@@H](O)COc1cc(OCc2ccccc2)ccn1 [Example 12, methyl (R)-3-((3-((4-(benzyloxy)pyridin-2-yl)oxy)-2-hydroxypropyl)amino)propanoate]	increasing the p62 protein oligomerization activity	show the efficacy of delivering the proteins to be delivered to and degraded by autophagosome	show the efficacy of targeting them to the autophagosome
O=C(CO)NCc1cccc(OCc2ccccc2)n1 [Example 1]	increasing the p62 protein oligomerization activity	show the efficacy of delivering the proteins to be delivered to and degraded by autophagosome	–
OCCNC[C@@H](O)COc1cccc(NCc2ccccc2)n1 [Example 14, (R)-1-((6-(benzylamino)pyridin-2-yl)oxy)-3-((2-hydroxyethyl)amino)propan-2-ol]	increasing the p62 protein oligomerization activity	show the efficacy of delivering the proteins to be delivered to and degraded by autophagosome	–
OCCNC[C@@H](O)CNc1cccc(OCc2ccccc2)n1 [Example 15, (R)-1-((6-(benzyloxy)pyridin-2-yl)amino)-3-((2-hydroxyethyl)amino)propan-2-ol]	increasing the p62 protein oligomerization activity	show the efficacy of delivering the proteins to be delivered to and degraded by autophagosome	–
O=C(CO)NCc1ccc(CCc2ccccc2)o1 [Example 19, 2-hydroxy-N-((5-phenethylfuran-2-yl)methyl) acetamide]	increasing the p62 protein oligomerization activity	show the efficacy of delivering the proteins to be delivered to and degraded by autophagosome	–
O=C(CO)NCc1cc(OCc2ccccc2)c(OCc2ccccc2)cn1 [Example 7, N-((4,5-bis(benzyloxy)pyridin-2-yl)methyl)-2-hydroxyacetamide]	increasing the p62 protein oligomerization activity	show the efficacy of delivering the proteins to be delivered to and degraded by autophagosome	–
OCCNCc1ccc(OCc2ccccc2)s1 [Example 17, 2-(((5-(benzyloxy)thiophen-2-yl)methyl)amino)ethan-1-ol]	increasing the p62 protein oligomerization activity	show the efficacy of delivering the proteins to be delivered to and degraded by autophagosome	–
OCCNCc1cc(OCc2ccccc2)ccn1 [Example 5, 2-(((4-(benzyloxy)pyridin-2-yl)methyl)amino)ethan-1-ol]	increasing the p62 protein oligomerization activity	show the efficacy of delivering the proteins to be delivered to and degraded by autophagosome	–
OCCNC[C@@H](O)COc1cncc(OCc2ccccc2)c1 [Example 13, (R)-1-((5-(benzyloxy)pyridin-3-yl)oxy)-3-((2-hydroxyethyl)amino)propan-2-ol]	increasing the p62 protein oligomerization activity	show the efficacy of delivering the proteins to be delivered to and degraded by autophagosome	–
COc1ccc(OC[C@H](O)CNCCO)nc1OCc1ccccc1 [Example 11, (R)-1-((6-(benzyloxy)-5-methoxypyridin-2-yl)oxy)-3-((2-hydroxyethyl)amino)propan-2-ol]	increasing the p62 protein oligomerization activity	show the efficacy of delivering the proteins to be delivered to and degraded by autophagosome	–
